{
  "source": "paper PMC5700161",
  "about": "“Structure of human immunoproteasome with a reversible and noncompetitive inhibitor that selectively inhibits activated lymphocytes” (Nature Communications, 2017)",
  "key": {"proliferating T cells": {"tested_on": "proliferating T cells", "assay": "Apoptosis and viability of proliferating vs non-proliferating T cells", "format": "cell-based, human", "conditions": "4 days anti-CD3/anti-CD28, then 24 h; PKS21221 1 µM, BTZ 10 nM", "from_the_text": "As we observed selective cytotoxicity of PKS21221 in activated B cells and ASCs compared to non-activated B cells, we asked whether this is the case in proliferating T cells. We activated human T cells to proliferate with anti-CD3 and anti-CD28 in the presence or absence of PKS21221 or bortezomib. […] To examine whether these inhibitors are cytotoxic preferentially to proliferating cells, we triggered T-cell proliferation with anti-CD3/anti-CD28 for 4 days (in the absence of inhibitors), treated the cells with PKS21221 for the next 24 h and determined cell survival with Annexin V and 7-AAD (Fig. 6c, d).\nFig. 6 Effect of PKS21221 and bortezomib (BTZ) on T-cell proliferation. T cells were isolated from human PBMC and stimulated with anti-CD3 (1 µg per ml) and anti-CD28 (1 µg per ml) for 4 days. […] Apoptosis c and viability d were assessed in proliferating and non-proliferating population of T cells. […]\nT cells were isolated from human PBMCs using Human T-cell Isolation kit (StemCell Technologies, Cat#17951). […] Cells were counted and loaded with 5 μM CellTrace Violet (Thermo Fisher) in phosphate buffered saline (PBS) for 10 min at 37 °C, followed by wash in 10% fetal calf serum (FCS)-supplemented RPMI 1640 media. […] The viability and apoptosis were assessed using Annexin V Apoptosis Detection Kit (BD Biosciences). […]"}, "CD19− cells": {"tested_on": "CD19− cells", "assay": "Apoptosis and viability of CD19− cells in ASC differentiation culture", "format": "cell-based", "experimental": "(§1) The immunoproteasome plays important roles in T cell differentiation and proliferation and dendritic cell activation and maturation[14],[20],[24]. However, its role in B cell differentiation is not well understood. […] Differentiated ASCs were then exposed to PKS21221 at indicated concentrations and cell survival was determined with Annexin V and 7-aminoactinomycin D (7-AAD) at three-time points (12-h, 24-h, and 48-h after treatment). […] In addition, the cytotoxicity of PKS21221 to different cell populations in PBMC was examined and compared to the cytotoxicity of bortezomib. PBMCs were incubated with PKS21221 or bortezomib, and the viability was assessed in T cells (CD3^+), B cells (CD19^+), monocytes (CD14^+) and dendritic cells (CD3^−CD19^−CD14^−CD16^−CD11c^+HLA-DR^+), respectively (Supplementary Fig. 13b–e).\n(§2) PBMCs were cultured with or without IL-2/R848 for 5 days, followed by 12-h incubation with PKS21221 at different concentrations. a Representative flow cytometry plots of cells treated with IL-2 and R848 in the presence and absence of PKS21221. […] Annexin V^+7-AAD^− cells were referred as “Early apoptosis” population, and Annexin V^+7-AAD^+ cells were referred as “Dead” population. d Percentage of early apoptotic ASCs (left) and dead ASCs (right), after 12-h incubation with PKS21221. […]"}, "[1]": {"tested_on": "β5(i+c) in Karpas 1106P cells", "assay": "Intracellular β5(i+c) activity in Karpas 1106P cells, suc-LLVY-luciferin", "format": "cell-based", "experimental": "To determine if this class of inhibitors is cell penetrable, we treated the B-cell lymphoma line Karpas 1106P[28] (expressing a high proportion of i-20S over c-20S) with PKS21221 before incubation with either (Ac-ANW)2-R110 (a specific substrate of β5i) or suc-LLVY-luciferin (a substrate of β5) (Fig. 4a).\nFig. 4 Intracellular proteasome inhibition by PKS21221 and its cytotoxicity against transformed cell lines. a Karpas 1106P lymphoma cells (white and black symbols) or HepG2 cells (blue symbols) were treated with PKS21221 for 2 h at the concentrations indicated prior to incubation with substrate (Ac-ANW)2R110 for β5i (Karpas cells) or suc-LLVY-luciferin for β5 (Karpas cells and HepG2 cells). […] Cell viability was determined by CellTiter-glo. Data are means ± SEM of three to four independent experiments"}, "PBMCs": {"tested_on": "PBMCs", "assay": "Viability of total PBMCs in ASC differentiation culture (7-AAD)", "format": "cell-based", "experimental": "as §1, §2"}},
  "note": "Entries after “also recorded” stand apart in the source; their conditions may differ.",
  "data": [
    {"smiles": "Cc1ccc(S(=O)(=O)N[C@@H](CC(=O)NC(C)(C)C)C(=O)NCCNC(=O)c2cc(-c3ccccc3F)ccc2F)cc1", "note": "[PKS21221]", "values": [
      {"measurement": "apoptosis and cell death, proliferating vs non-proliferating T cells", "setting": "proliferating T cells", "value": "induced apoptosis and cell death to a greater extent in proliferating T cells than in non-proliferating T cells"},
      {"measurement": "apoptosis of CD19− cells", "setting": "CD19− cells", "value": "no increase"},
      {"measurement": "viability of CD19− cells", "setting": "CD19− cells", "value": "did not affect viability"},
      {"measurement": "IC50", "setting": "[1]", "value": "118 ± 33", "unit": "nM"},
      {"measurement": "overall viability of PBMCs", "setting": "PBMCs", "value": "not affected; also recorded: did not affect overall viability"}
    ]}
  ]
}
